“Also recorded” adds a separate entry of the source.

A short description of series [1]: Liver enzyme assays (ALP, ALT) after necropsy. The format is in vivo, nude mice. The conditions noted are these: listed as MBQ-167. The source says: . Mammary fatpad tumors were established in nude mice by inoculating 5×10^5 GFP-HER2-BM cells; […]; FIG. 6B, Representative fluorescence micrographs of lungs, spleens, and kidneys from vehicle or MBQ-167 treated mice following necropsy; […]; Following necropsy, livers were harvested, lysed and subjected to FIG. 6D, ALP activity or FIG. 6E, ALT activity assays; N=4, error bars represent ±S.E.M.
The mice from this study were also examined once a week for potential toxicity. […]. At necropsy, livers were harvested, lysed and subjected to liver enzyme assays as a test for potential toxic effects. […]. Frozen stored livers were thawed and homogenized to measure alkaline phosphatase (ALP) and alanine transaminase (ALT) activities using colorimetric assay kits from Abeam and Cayman Chemicals respectively, as per manufacturer's instructions.

Series [2] deals with PAK1 and PAK2. Kind of series: Western blot of PAK signaling (p-PAK, p-LIMK, p-cofilin), MDA-MB-231. The format is cell-based, human. The conditions noted are these: for reduction of PAK activity compared to vehicle: MDA-MB-231 and GFP-HER2-BM. On the procedure:
To investigate the effect of MBQ-167 on Rac/Cdc42 signaling, its effect on the major Rac/Cdc42 downstream effector PAK was investigated. The phosphorylation status of several PAK residues was analyzed by western blotting, as a measure of its activity. At 250 nM, 24 h treatment with MBQ-167 inhibited PAK1 and PAK2 phosphorylation at the T423/T402 and S199/S192 residues in the detached population of MDA-MB-231 cells. […] Even though PAK1^T423 phosphorylation was not inhibited in the attached cells, the reduction in the homologous PAK2 phosphorylation sites indicates a preferential inhibition of PAK2 in the attached cells (FIGS. 4A-1, 4A-2, FIG. 4B-1). […] The decrease in cofilin phosphorylation was evident after 12 h following 250 nM MBQ-167 (FIG. 4C), indicating activation of cofilin, which account for the observed actin cytoskeletal restructuring (FIG. 2B). […] Similarly, in the NCI-N87 human metastatic gastric cancer cell line, MBQ-167 inhibited the viability and the activity of PAK isoforms PAK1 and PAK4, which have been implicated in gastric cancer malignancy (FIG. 8B).

Series [3] relates to NCI-N87 cells. Kind of series: MTT viability assay, NCI-N87 gastric cancer cells. The class given is cell-based, human. As to conditions: 250 nM. The text has this:
FIGS. 8A, 8B. The effect of MBQ-167 on survival and PAK activity in NCI-N87 gastric cancer cells.

Consider `CCn1c2ccccc2c2cc(-n3nncc3-c3ccccc3)ccc21` [I-1, 9-ethyl-3-(5-phenyl-1H-1,2,3-triazol-1-yl)-9H-carbazole], for which the “liver ALT activity” value in series [1] (10 mg/kg BW) is on record as “significantly increased; also recorded: increases”. In series [1] (1 and 10 mg/kg BW), the “liver ALP activity” value was “does not significantly affect”. For the same compound, the “LIMK (Y507/T508) and cofilin (S3) phosphorylation” value in series [2] (250 nM) is “both decreased”. Besides, the “phosphorylation of PAK1 S144” value in series [2] (250 nM, 24 h) is on record as “dramatic increase”. The “PAK1 and PAK2 phosphorylation at T423/T402 and S199/S192” value in series [2] (250 nM, 24 h, detached population) was “inhibited”. Besides, the “reduction of PAK activity compared to vehicle” value in series [2] (attached population) was ~25%; in series [2] (detached cells), 90%. Also, in series [3] (24 h, listed as MBQ-167), the “reduction of cell viability” value is given as 55%. Moreover, the cytotoxicity at […] in series [3] (Homo sapiens, NCI-N87, 24 h, read-out: reduction of cell viability) amounted to 50%.

These data come from patent US11390629B2, “1,5-disubstituted 1,2,3-triazoles are inhibitors of Rac/Cdc42 GTPases” (UNIVERSITY OF PUERTO RICO, priority 2016, dated 2022).
